The source made the active and inactive calls.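 How the source made its calls: active means reversible inhibitor in any panel, blocking the enzyme before filtration but under 50% inhibition after two or more filtrations; inactive means irreversible inhibitor in every panel.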

Test [1] addresses Acyl-protein thioesterase 2 (Homo sapiens) (UniProt O95372). Nature of the test: LYPLA1 and LYPLA2 inhibitor binding mode – cell lysate, gel-based ABPP, fluorescence, gel filtration, HEK293T proteome, mechanism study, late-stage follow-up (AID 651987). The conditions noted are these: HEK293T soluble proteome. For orientation: SEC sorts molecules by how far they enter the pores of the column.

Test [2] concerns the target Acyl-protein thioesterase 1 (Homo sapiens) (UniProt O75608). The test is described as above. The conditions noted are these: HEK293T soluble proteome.
The mark [3] stands for this setting: LYPLA2, after 1 gel filtration, stronger effect = higher value.
The mark [4] stands for this setting: LYPLA2, after 2 gel filtrations, stronger effect = higher value.
The mark [5] stands for this setting: LYPLA2, stronger effect = higher value, concentration not given here.
[6] abbreviates: LYPLA1, after 1 gel filtration, stronger effect = higher value.
[7] abbreviates: LYPLA1, after 2 gel filtrations, stronger effect = higher value.
The mark [8] stands for this setting: LYPLA1, stronger effect = higher value, concentration not given here.

Sequence of Acyl-protein thioesterase 1 (Homo sapiens) (O75608 whole entry, looked up): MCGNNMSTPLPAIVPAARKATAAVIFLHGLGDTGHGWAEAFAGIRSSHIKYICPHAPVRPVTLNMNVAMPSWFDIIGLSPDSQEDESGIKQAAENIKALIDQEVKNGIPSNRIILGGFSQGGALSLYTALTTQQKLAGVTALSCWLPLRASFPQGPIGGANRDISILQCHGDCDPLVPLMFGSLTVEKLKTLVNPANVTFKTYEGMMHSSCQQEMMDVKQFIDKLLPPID
Sequence of Acyl-protein thioesterase 2 (Homo sapiens) (O95372 whole entry, looked up): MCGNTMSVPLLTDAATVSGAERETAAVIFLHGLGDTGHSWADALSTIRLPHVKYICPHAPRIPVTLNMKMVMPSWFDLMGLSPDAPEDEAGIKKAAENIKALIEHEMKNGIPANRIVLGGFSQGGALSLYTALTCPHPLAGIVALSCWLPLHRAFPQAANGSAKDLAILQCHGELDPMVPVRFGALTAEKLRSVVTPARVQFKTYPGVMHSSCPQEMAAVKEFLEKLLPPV

`COc1ccc(N2CCN(C(=O)c3cc4c(s3)-c3ccccc3S(=O)(=O)C4)CC2)cc1`: the inhibition (as a rule, how much of the control response was suppressed) in test [1] (setting [3]) is 100%; in test [1] (setting [4]), 0%; in test [1] (setting [5]), 100%; in test [2] (setting [6]), 0%; in test [2] (setting [7]) it was 0%; in test [2] (setting [8]) it was 0% (inactive).

Take `O=C(CN1CCN(C(=O)c2ccco2)CC1)Nc1cc(C(F)(F)F)ccc1Cl`: the inhibition in test [1] (setting [3]) was 0%; in test [1] (setting [4]) it was 0%; in test [1] (setting [5]), 0% (inactive); in test [2] (setting [6]), 75%; in test [2] (setting [7]) it was 0%; in test [2] (setting [8]), 100%.

For the compound `O=C(N1CCCCC1)n1ccnn1`, the inhibition in test [1] (setting [3]) is 100%; in test [1] (LYPLA2, after 3 gel filtrations, stronger effect = higher value) it was 100%; in test [1] (setting [5]) it was 100% (inactive); in test [2] (setting [6]) it was 100%; in test [2] (LYPLA1, after 3 gel filtrations, stronger effect = higher value), 100%; in test [2] (setting [8]) it was 100% (inactive).

Values taken from PubChem BioAssay AID651987 (The Scripps Research Institute Molecular Screening Center, 2013).
